Data from patent US20150119251A1, “AGRICULTURAL PLANT-PROTECTING AGENTS CONTAINING DIPEPTIDE DERIVATIVE AS ACTIVE INGREDIENT” (REPUBLIC OF KOREA (RURAL DEVELOPMENT ADMINISTRATION), priority 2012, published 2015).
Square brackets hold non-standard residues; d marks the D form. Peptide text beside a SMILES is read from it. * marks the point of attachment. ξ: configuration not given here. Ile(3ξ) = CCC(C)[C@H](N)C(=O)O; Boc = CC(C)(C)OC(=O)*; OtBu = CC(C)(C)O*

System: tobacco bacterial rot (Pectobacterium carotovorum)
Assay: Suppression of tobacco bacterial rot
Format: in vivo, Pectobacterium carotovorum SCC1
Procedure: A tobacco or cucumber was sown in a plastic pot with a diameter of 10 cm×13 cm, and then, 12 pots were added in a yellow box. After seeding, 100 μL was inoculated to the cotyledons of cucumber or tobacco, in which first leaf was started to come out. The test compounds were dissolved in 20% methanol to make a stock solution, and then, the stock solution was diluted to the concentrations of 1, 10, and 100 ppm.
After 7 days, the pathogen of a plant bacterial rot (Pectobacterium carotovorum SCC1) was cultured in a TSA medium for 27 hours; and then, the cultured pathogen was sprayed in a concentration of 10^8 cfu/mL to the plant leaves, and cultured at 30° C. for 3 days. The plant anthracnose germ (Colletotrichum orbiculare) was cultured in a GBA (Green bean agar) medium to induce spores for about 2 to 3 weeks. The germ was sprayed in a concentration of 10^5 cell/mL and then cultured at 26° C. for 1 day. When fourth or fifth leaf came out, 200 μL of each of the test compounds was inoculated to third leaf. After 7 days, the pathogen of the plant bacterial rot was sprayed to the plant leaves in the concentration of 10^8 cfu/mL, and then cultured at 30° C. for 3 days.
The investigation was performed with naked eyes, and the lesion relative areas were investigated until 0 to 100% according to the shortness degrees of the bacterial rot. The anthracnose was investigated by counting the number of lesions occurred on the leaves.

Structure (SMILES)	Lesion outbreak rate (Table 4, tobacco, 1 ppm)	Lesion outbreak rate (Table 4, tobacco, 10 ppm)	Lesion outbreak rate (Table 4, tobacco, 100 ppm)	Lesion outbreak rate (Table 5, tobacco, 10 ppm)	Lesion outbreak rate (Table 5, tobacco, 100 ppm)
COC(=O)[C@@H]1CCCN1C(=O)[C@H](CCCCNC(=O)OC(C)(C)C)NC(=O)OC(C)(C)C [Compound 28] (Boc-Lys(Boc)-Pro-OMe)	20%	80%	13%	–	–
COC(=O)[C@@H]1CCCN1C(=O)[C@H](Cc1c[nH]cn1)NC(=O)OC(C)(C)C [Compound 29]	63%	43%	63%	–	–
COC(=O)[C@@H]1CCCN1C(=O)[C@H](CCC(=O)OC(C)(C)C)NC(=O)OC(C)(C)C [Compound 30] (Boc-Glu(OtBu)-Pro-OMe)	23%	36%	13%	–	–
COC(=O)[C@@H]1CCCN1C(=O)[C@H](CCCNC(=NC(=O)OCc1ccccc1)NC(=O)OCc1ccccc1)NC(=O)OC(C)(C)C [Compound 31]	63%	56%	73%	–	–
COC(=O)[C@@H]1CCCN1C(=O)[C@H](Cc1ccc(O)cc1)NC(=O)OC(C)(C)C [Compound 32] (Boc-Tyr-Pro-OMe)	78%	30%	60%	–	–
COC(=O)[C@H]1CCCN1C(=O)[C@@H]1CCCN1C(=O)OC(C)(C)C [Compound 33] (Boc-Pro-[dP]-OMe)	80%	38%	18%	–	–
CCC(C)[C@H](NC(=O)OC(C)(C)C)C(=O)N1CCC[C@@H]1C(=O)OC (some centres unmarked) [Compound 34] (Boc-[Ile(3ξ)]-[dP]-OMe)	35%	41%	24%	–	–
COC(=O)[C@H]1CCCN1C(=O)[C@H](Cc1ccc(O)cc1)NC(=O)OC(C)(C)C [Compound 35] (Boc-Tyr-[dP]-OMe)	18%	43%	50%	–	–
COC(=O)[C@H]1CCCN1C(=O)[C@H](CC(C)C)NC(=O)OC(C)(C)C [Compound 36] (Boc-Leu-[dP]-OMe)	45%	41%	38%	–	–
COC(=O)[C@H]1CCCN1C(=O)[C@H](CC(=O)OC(C)(C)C)NC(=O)OC(C)(C)C [Compound 37] (Boc-Asp(OtBu)-[dP]-OMe)	5%	5%	43%	–	–
COC(=O)[C@H]1CCCN1C(=O)CNC(=O)OC(C)(C)C [Compound 38] (Boc-Gly-[dP]-OMe)	13%	80%	60%	–	–
COC(=O)[C@H]1CCCN1C(=O)[C@H](CO)NC(=O)OC(C)(C)C [Compound 39] (Boc-Ser-[dP]-OMe)	35%	10%	43%	–	–
COC(=O)[C@H]1CCCN1C(=O)[C@H](CCSC)NC(=O)OC(C)(C)C [Compound 40] (Boc-Met-[dP]-OMe)	8%	45%	43%	–	–
COC(=O)[C@H]1CCCN1C(=O)[C@H](CC(N)=O)NC(=O)OC(C)(C)C [Compound 41] (Boc-Asn-[dP]-OMe)	30%	50%	18%	–	–
COC(=O)[C@H]1CCCN1C(=O)[C@H](Cc1ccccc1)NC(=O)OC(C)(C)C [Compound 42] (Boc-Phe-[dP]-OMe)	43%	60%	45%	–	–
COC(=O)[C@H]1CCCN1C(=O)[C@H](Cc1c[nH]c2ccccc12)NC(=O)OC(C)(C)C [Compound 43] (Boc-Trp-[dP]-OMe)	35%	45%	31%	–	–
COC(=O)[C@H]1CCCN1C(=O)[C@H](C)NC(=O)OC(C)(C)C [Compound 44] (Boc-Ala-[dP]-OMe)	46%	37%	33%	–	–
COC(=O)[C@H]1CCCN1C(=O)[C@H](CCC(N)=O)NC(=O)OC(C)(C)C [Compound 45] (Boc-Gln-[dP]-OMe)	83%	33%	55%	–	–
COC(=O)[C@H]1CCCN1C(=O)[C@H](Cc1c[nH]cn1)NC(=O)OC(C)(C)C [Compound 46]	56%	70%	48%	–	–
COC(=O)C1CCCN1C(=O)C(NC(=O)OC(C)(C)C)C(C)O (stereo not drawn) [Compound 47] (Boc-Thr-Pro-OMe; configuration not given here)	–	–	–	0%	50%
